Test system: angiotensin converting enzyme
Experiment: In-vivo ACE inhibitory activity: inhibition of the pressor response to i.v. angiotensin I in anesthetised rats
Settings: for ID50 (i.v.): intravenous dose required to inhibit the pressor response to i.v. angiotensin I by 50% in anesthetised rats; for ID50 (oral): oral dose required to inhibit the pressor response to i.v. angiotensin I by 50% in anesthetised rats
Text: As mentioned before the compounds of this invention show valuable antihypertensive activity. It can be concluded from animal tests that these compounds have high angiotensin converting enzyme inhibitory activity (ACE inhibitory activity). The in-vivo ACE inhibitory activity of Compound A: 1- [N-[1(S)-carboxy-3- [4-(4-chloro-3-sulfamoyl benzamido) phenyl] propyl](S)-alanyl]cis,syn-octahydroindole-2-(S)-carboxylic acid Compound B: 1-[N-[1(S)-carboxy-3-[4-(4-chloro-3-N-methyl-sulfamoyl benzamido)phenyl]propyl]-(S)-alanyl]cis, syn-octahydroindole-2(S)-carboxylic acid is as follows: […]

SMILES | ID50 (i.v.) | ID50 (oral)
C[C@H](N[C@@H](CCc1ccc(NC(=O)c2ccc(Cl)c(S(N)(=O)=O)c2)cc1)C(=O)O)C(=O)N1[C@H](C(=O)O)C[C@@H]2CCCC[C@@H]21 [Compound A, 1-[N-[1(S)-carboxy-3-[4-(4-chloro-3-sulfamoylbenzamido)phenyl]propyl](S)-alanyl]cis,syn-octahydroindole-2-(S)-carboxylic acid] | 0.036 mg/kg | 3 mg/kg
CNS(=O)(=O)c1cc(C(=O)Nc2ccc(CC[C@H](N[C@@H](C)C(=O)N3[C@H](C(=O)O)C[C@@H]4CCCC[C@@H]43)C(=O)O)cc2)ccc1Cl [Compound B, 1-[N-[1(S)-carboxy-3-[4-(4-chloro-3-N-methyl-sulfamoylbenzamido)phenyl]propyl]-(S)-alanyl]cis, syn-octahydroindole-2(S)-carboxylic acid] | 0.033 mg/kg | 3 mg/kg

From patent publication EP0236307B1, “ANTIHYPERTENSIVE AGENTS, PHARMACEUTICAL COMPOSITIONS CONTAINING THEM AND PROCESSES FOR THE PREPARATION OF THE AGENTS AND COMPOSITIONS” (SCHERING CORPORATION, priority 1985, dated 1987)
